Values of other authors as cited in paper PMC5381245 (Theranostics, 2017).

Tested on: tumor
Settings: 2 h p.i.

Substance	tumor uptake [%ID/g]	tumor-to-kidney uptake ratio	tumor-to-kidneys uptake ratio
NOTA-GlyGly-Nle-CycMSHhex (sidechain bridge or staple) [^64Cu-labeled NOTA-GlyGly-Nle-CycMSHhex]	13.4 ± 1.6		
^111In-DOTA-GlyGly-Nle-CycMSHhex (sidechain bridge or staple)		2.8	
^111In-DOTA-Nle-CycMSHhex (sidechain bridge or staple)	19.4 ± 1.7		2.0
